Reference: patent EP0367040A1, “Compounds for the treatment of urinary incontinence” (Kabi Pharmacia AB, priority 1988, dated 1990)
Read-outs that look alike come from different tables or passages of the source.

Experiments:
rabbit papillary muscles = assay: Electrically stimulated isolated papillary muscle (heart), contraction amplitude; type: cell-based; details: Oryctolagus cuniculus, read-out: El.stim. papillary muscle, % inhibition of 1 µM
From the text: The effects on heart were investigated by using isolated, rabbit papillary muscles, which were electrically stimulated at a submaximum frequency. The contraction amplitude was re­corded.

rabbit portal vein = assay: Electrically induced submaximal contractions of isolated portal vein; type: cell-based; details: Oryctolagus cuniculus, read-out: El.stim. portal vein % inhibition by 1 µM
rabbit urinary bladder [1] = assay: Anticholinergic effect on carbachol-stimulated isolated urinary bladder strips; type: cell-based; details: Oryctolagus cuniculus, read-out: Carbachol stim.rabbit urinary bladder KD
Method: (§1) Carbachol was used as an agonist and was added to the organ bath cumulatively.

rabbit urinary bladder [2] = assay: Inhibition of electrically induced contractions of isolated urinary bladder strips; type: cell-based; details: Oryctolagus cuniculus; electrically stimulated isolated rabbit bladder strips; only about half of the contractile response is mediated by cholinergic nerves; read-out: El.stim. rabbit urinary bladder IC50
Method: as §1

muscarinic receptors = assay: Selectivity factor: isolated human urinary bladder versus human salivary gland (QNB radioligand); type: binding; details: quotient of inhibitory concentration on isolated human urinary bladder and human salivary gland; lower figure = higher selectivity for the bladder
From the text: The human salivary glands were obtained from patients undergoing operation for treatment of cancer in these glands. As the radioligand by which the muscarinic receptors were label led, QNB was used. The method is described in detail by S. Batra et al. in Psychopharmacology, 1986, 90, 1-4.

albino mice = assay: Mydriatic effect, pupil diameter in unanaesthetized mice after intravenous dosing; type: in vivo
Method: For studying the mydriatic effect of the compounds un­anaesthetized albino mice were used. The substance was given intravenously in different doses and the pupil diame­ter was measured by means of a microscope every tenth minute until the effect disappeared.

[3] = 1 µM, isolated rabbit papillary muscle, electrically stimulated
[4] = 1 µM, isolated rabbit portal vein, electrically stimulated
[5] = carbachol as agonist, added cumulatively, isolated rabbit bladder strips

Row | IC50 (rabbit urinary bladder [2]) | Selectivity factor for human urinary bladder in comparison with human salivary gland (muscarinic receptors) | Compound | inhibition at 1 µM (rabbit papillary muscles) | inhibition at 1 µM (rabbit portal vein) | Kb (rabbit urinary bladder [1]) | inhibition at 1 µM (rabbit papillary muscles; [3]) | inhibition at 1 µM (rabbit portal vein; [4]) | Kb (rabbit urinary bladder [1]; [5]) | Mydriatic effect, % dilatation by 1 mg/kg i.v. (albino mice)
1 | 8500 nM | 6 | CC(C)N(CCN(C)C(=O)C(c1ccccc1)c1ccccc1)C(C)C.Cl [Example No 3, N-methyl-N-(2-diisopropylaminoethyl)-2,2-diphenyl-acetamide hydrochloride] |  |  |  | 8% | 10% | 60 nM | 2%
2 | 35200 nM | 5 | CC(C)N(CCCN(C)C(=O)C(c1ccccc1)c1ccccc1)C(C)C [Example No 4, N-methyl-N-(3-diisopropylaminopropyl)-2,2 diphenylacetamide] |  |  |  | 9% | 4% | 550 nM | 0%
3 | 5300 nM | 6 | CC(C)N(CCNC(=O)C(c1ccccc1)c1ccccc1)C(C)C [Example No 10, N-(2-diisopropylaminoetyl)-2,2-diphenylacetamide] |  |  |  | 0% | 10% | 110 nM | 11%

The next lines start with the compound.

Row | Compound | IC50 (rabbit urinary bladder [2]) | Selectivity factor for human urinary bladder in comparison with human salivary gland (muscarinic receptors) | inhibition at 1 µM (rabbit papillary muscles) | inhibition at 1 µM (rabbit portal vein) | Kb (rabbit urinary bladder [1]) | inhibition at 1 µM (rabbit papillary muscles; [3]) | inhibition at 1 µM (rabbit portal vein; [4]) | Kb (rabbit urinary bladder [1]; [5]) | Mydriatic effect, % dilatation by 1 mg/kg i.v. (albino mice)
4 | CN1[C@@H]2CC[C@H]1C[C@@H](OC(=O)C(CO)c1ccccc1)C2 (stereo partly shown) [Atropine, reference compound] |  |  | 5% | 20% | 2 nM |  |  |  | 
5 | CN(CCCN(C)C(C)(C)C)C(=O)C(c1ccccc1)c1ccccc1.Cl [Example No 7, N-methyl-N-[3-(N-methyl-N-tert-butyl-amino)propyl]-2,2-diphenylacetamide hydrochloride] | 25700 nM | 2 |  |  |  | 0% | 4% | 2900 nM | 0%
6 | CCN(CC)CC#CCOC(=O)C(O)(c1ccccc1)C1CCCCC1 (stereo not shown) [Oxybutynin, 2-cyclohexyl-2-hydroxy-2-phenylacetic acid 4-(diethylamino)-2-butynyl ester, reference compound] |  |  | 3% | 6% | 6 nM |  |  |  | 95%
7 | CC(CC(c1ccccc1)c1ccccc1)NC(C)(C)C (stereo not shown) [Terodiline, N-t-butyl-3,3-diphenyl-1-methylpropylamine, reference compound] | 14500 nM | 93 |  |  |  | 14% | 4% | 220 nM | 1%
